Among the data in PubChem BioAssay (NCI) are GI50 and TGI values, retold here.

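Method: 48-hour compound exposure of cells in 96-well plates, five concentrations, linear interpolation of endpoints. Here, GI50 denotes the concentration required for 50% inhibition of growth. TGI is the concentration that stops growth completely.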

Some test systems named below: 786-0 renal; SN12C renal; SK-OV-3 ovarian; MALME-3M melanoma; T-47D breast; NCI/ADR-RES ovarian; SK-MEL-2 melanoma; SK-MEL-5 melanoma; M14 melanoma; CAKI-1 renal.
Common to all, as to experiment: NCI anticancer screen, dose series, 48 h

`O=C1c2cc3c(cc2-c2c1c1cc(Cl)c(Cl)cc1c(=O)n2C[C@H](O)CO)OCO3`: the GI50 is < 0.01 µM with 786-0 renal; < 0.01 µM in the assay on SN12C renal; < 0.01 µM with SK-OV-3 ovarian; 0.0154 µM with MALME-3M melanoma; < 0.01 µM with T-47D breast; < 0.01 µM in the assay on NCI/ADR-RES ovarian. Also, the GI50 in the assay on SK-MEL-2 melanoma was 0.0488 µM; with SK-MEL-5 melanoma, < 0.01 µM. In addition, the TGI was determined as 0.187 µM in the assay with 786-0 renal; 0.122 µM in the assay on SN12C renal; 0.0536 µM in the assay on SK-OV-3 ovarian; 0.156 µM with MALME-3M melanoma; 0.0334 µM with T-47D breast; 0.0184 µM in the assay on NCI/ADR-RES ovarian. In addition, the TGI with SK-MEL-2 melanoma amounted to 0.374 µM; in the assay with SK-MEL-5 melanoma, 0.0134 µM.

For `CC(C)OC(=O)[C@H](C)NP(=O)(OC[C@H]1O[C@@H](n2ccc(=O)[nH]c2=O)[C@](C)(F)[C@@H]1O)Oc1ccccc1` (stereo not given in full), the GI50 in the assay on 786-0 renal, in the assay with SN12C renal, in the assay with SK-OV-3 ovarian, in the assay on M14 melanoma, with MALME-3M melanoma and in the assay with T-47D breast was > 100 µM throughout. In addition, the GI50 with NCI/ADR-RES ovarian, in the assay on SK-MEL-2 melanoma and in the assay on SK-MEL-5 melanoma was > 100 µM each time. Further, the TGI in the assay with 786-0 renal, with SN12C renal, in the assay on SK-OV-3 ovarian, in the assay with M14 melanoma, in the assay with MALME-3M melanoma and in the assay on T-47D breast was > 100 µM each time. The TGI with NCI/ADR-RES ovarian, in the assay on SK-MEL-2 melanoma and in the assay with SK-MEL-5 melanoma was > 100 µM each time.

`O=[N+]([O-])c1ccc(CI)cc1`: the GI50 with 786-0 renal is 4.71 µM; in the assay with SN12C renal, 2 µM; in the assay with SK-OV-3 ovarian, 4.53 µM; with M14 melanoma, 3.38 µM; with MALME-3M melanoma, 2.15 µM; in the assay on T-47D breast it was 2.21 µM. Further, the GI50 with CAKI-1 renal was 1.91 µM; in the assay on NCI/ADR-RES ovarian, 3.15 µM; in the assay with SK-MEL-5 melanoma it was 1.99 µM. Further, the TGI in the assay with 786-0 renal amounted to 16.4 µM; with SN12C renal, 5.39 µM; in the assay on SK-OV-3 ovarian, 15.5 µM; in the assay with M14 melanoma, 13.5 µM; in the assay on MALME-3M melanoma it was 4.63 µM; in the assay on T-47D breast it was 5.17 µM. Moreover, the TGI in the assay with CAKI-1 renal is 3.98 µM; in the assay with NCI/ADR-RES ovarian it was 11.2 µM; in the assay with SK-MEL-5 melanoma it was 4.41 µM.

In the case of `COc1ccc(/C(=C\C=C(C#N)C#N)Sc2nc3ccccc3s2)cc1`, the GI50 is 1.7 µM in the assay with 786-0 renal; 7.06 µM with SN12C renal; 14.3 µM with SK-OV-3 ovarian; 2.52 µM with M14 melanoma; 6.82 µM in the assay on T-47D breast; 15.8 µM in the assay on CAKI-1 renal. The GI50 with NCI/ADR-RES ovarian was 3.69 µM; with SK-MEL-2 melanoma it was 34.1 µM; in the assay with SK-MEL-5 melanoma, 7.87 µM. In addition, the TGI is 5.66 µM with 786-0 renal; 32.8 µM in the assay with SN12C renal; 29.5 µM in the assay on SK-OV-3 ovarian; 9.08 µM with M14 melanoma; 27 µM in the assay on T-47D breast; > 50 µM in the assay on CAKI-1 renal. For the same molecule, the TGI in the assay on NCI/ADR-RES ovarian is 12.6 µM; with SK-MEL-2 melanoma, > 50 µM; in the assay on SK-MEL-5 melanoma, 16.5 µM.

Consider `O=S(=O)(Nc1ccc(Cl)cc1Cl)c1ccc(-c2cnc(C3CC3)o2)cc1`, for which the GI50 with 786-0 renal was 0.615 µM; in the assay with SN12C renal it was 1.4 µM; in the assay with SK-OV-3 ovarian it was 7.1 µM; in the assay on M14 melanoma, 0.473 µM; in the assay with T-47D breast it was 0.475 µM; in the assay with CAKI-1 renal, 0.505 µM. In addition, the GI50 with NCI/ADR-RES ovarian was 0.51 µM; in the assay on SK-MEL-2 melanoma, 3.03 µM; with SK-MEL-5 melanoma, 0.555 µM. For the same molecule, the TGI with 786-0 renal is > 86.5 µM; in the assay with SN12C renal, 46.2 µM; in the assay on SK-OV-3 ovarian, 99.4 µM; with M14 melanoma, > 88.2 µM; in the assay with T-47D breast, > 85.8 µM; in the assay on CAKI-1 renal, 55.9 µM. Moreover, the TGI came out at 17.5 µM with NCI/ADR-RES ovarian, 42.2 µM in the assay with SK-MEL-2 melanoma and 14.1 µM in the assay on SK-MEL-5 melanoma.

With `COC(=O)c1ccc(-c2c(C#N)[n+](=O)c3cc(Cl)c(Cl)cc3n2[O-])cc1`, the GI50 with 786-0 renal was 17.6 µM; in the assay with SN12C renal it was 14.7 µM; with M14 melanoma, 16.2 µM; in the assay on MALME-3M melanoma it was 20 µM; in the assay with T-47D breast, 2.48 µM; in the assay with CAKI-1 renal, 18.9 µM. The GI50 was 23.2 µM with NCI/ADR-RES ovarian and 22 µM in the assay with SK-MEL-5 melanoma. The TGI in the assay on 786-0 renal was 35.6 µM; in the assay on SN12C renal it was 29.3 µM; with M14 melanoma, 34.1 µM; with MALME-3M melanoma, 44.3 µM; in the assay on T-47D breast it was 6.08 µM; in the assay with CAKI-1 renal, 35.4 µM. Moreover, the results for the TGI in the assay on NCI/ADR-RES ovarian and in the assay on SK-MEL-5 melanoma were 75.6 µM and 47.7 µM, respectively.

For the molecule `CC(C(=O)O)c1cccc(Oc2ccccc2)c1` (stereo not given), the GI50 with 786-0 renal, with SN12C renal, in the assay with SK-OV-3 ovarian, in the assay on M14 melanoma, in the assay on MALME-3M melanoma and in the assay on T-47D breast was > 100 µM throughout. For the same molecule, the GI50 with CAKI-1 renal, in the assay on NCI/ADR-RES ovarian and in the assay with SK-MEL-5 melanoma was > 100 µM throughout. Moreover, the TGI with 786-0 renal, in the assay on SN12C renal, in the assay with SK-OV-3 ovarian, with M14 melanoma, with MALME-3M melanoma and with T-47D breast was > 100 µM throughout. Also, the TGI in the assay with CAKI-1 renal, with NCI/ADR-RES ovarian and in the assay on SK-MEL-5 melanoma was > 100 µM throughout.

As to `CSc1ccccc1C#C/C=C\C#Cc1ccccc1N`, the GI50 in the assay on 786-0 renal is 16.3 µM; with SN12C renal, 8.93 µM; in the assay on SK-OV-3 ovarian, 31.4 µM; with M14 melanoma, 5.85 µM; in the assay on T-47D breast, 17.6 µM; in the assay with CAKI-1 renal, 0.32 µM. The GI50 in the assay on NCI/ADR-RES ovarian is 4.05 µM; in the assay on SK-MEL-2 melanoma, 6.13 µM; in the assay on SK-MEL-5 melanoma, 3.71 µM. The TGI with 786-0 renal amounted to 42.6 µM; with SN12C renal it was 27.7 µM; with SK-OV-3 ovarian it was 96.5 µM; with M14 melanoma, 20.1 µM; in the assay with T-47D breast it was 38.6 µM; with CAKI-1 renal, 1.68 µM. The TGI in the assay with NCI/ADR-RES ovarian is 16 µM; in the assay with SK-MEL-2 melanoma, > 100 µM; in the assay on SK-MEL-5 melanoma it was 16.4 µM.
